Measurements published in ChEMBL document CHEMBL6182949 (J Med Chem, 2025).
Converted amounts (≈) assume the structure as drawn. The source made the active and inactive calls. The rule behind the calls is not given here.

Legend:
[1] = biological target: Protein cereblon/Interleukin-1 receptor-associated kinase 4 (Homo sapiens, UniProt Q9NWZ3+Q96SW2); assay: PROTAC activity at CRBN/IRAK4 in human THP-1 cells assessed as induction of IRAK4 degradation incubated for 24 hrs by HiBiT lytic reagent based analysis; type: cell-based
Chain of Protein cereblon/Interleukin-1 receptor-associated kinase 4 (Q9NWZ3 whole entry): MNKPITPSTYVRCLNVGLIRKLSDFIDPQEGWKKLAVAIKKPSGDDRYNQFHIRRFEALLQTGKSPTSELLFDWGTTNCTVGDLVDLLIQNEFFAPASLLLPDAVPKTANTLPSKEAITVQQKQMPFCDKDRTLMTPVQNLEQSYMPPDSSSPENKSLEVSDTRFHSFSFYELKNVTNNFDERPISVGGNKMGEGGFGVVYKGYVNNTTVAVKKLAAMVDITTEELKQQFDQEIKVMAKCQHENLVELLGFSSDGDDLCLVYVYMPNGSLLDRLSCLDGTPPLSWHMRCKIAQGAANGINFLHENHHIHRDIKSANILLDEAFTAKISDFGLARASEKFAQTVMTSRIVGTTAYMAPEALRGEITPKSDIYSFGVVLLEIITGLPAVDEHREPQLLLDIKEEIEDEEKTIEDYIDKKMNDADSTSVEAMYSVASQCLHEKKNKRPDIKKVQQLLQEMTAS
Chain of Protein cereblon/Interleukin-1 receptor-associated kinase 4 (Q96SW2 whole entry): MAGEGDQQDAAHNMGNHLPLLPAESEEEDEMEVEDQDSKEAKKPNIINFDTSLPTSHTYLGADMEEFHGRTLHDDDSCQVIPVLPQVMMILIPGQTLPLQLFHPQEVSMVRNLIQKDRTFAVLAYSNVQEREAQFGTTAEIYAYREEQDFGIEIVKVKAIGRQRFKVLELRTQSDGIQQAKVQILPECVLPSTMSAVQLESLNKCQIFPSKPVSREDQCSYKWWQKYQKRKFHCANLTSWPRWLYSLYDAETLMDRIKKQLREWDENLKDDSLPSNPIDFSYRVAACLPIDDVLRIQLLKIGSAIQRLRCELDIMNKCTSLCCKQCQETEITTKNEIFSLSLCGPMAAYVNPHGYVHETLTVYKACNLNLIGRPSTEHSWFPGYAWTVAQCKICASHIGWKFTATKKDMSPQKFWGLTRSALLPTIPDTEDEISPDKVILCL

[2] = Metabolic stability in cynomolgus monkey liver microsome assessed as half life at 1 uM measured up to 60 mins in presence of NADPH by LC-MS/MS analysis; type: ADME, Macaca fascicularis; details: liver microsomes
[3] = Metabolic stability in mouse liver microsome assessed as half life at 1 uM measured up to 60 mins in presence of NADPH by LC-MS/MS analysis; type: ADME; details: liver microsomes
[4] = Metabolic stability dog hepatocyte assessed as half life at 1 uM measured up to 120 mins by LC-MS/MS analysis; type: ADME, cell-based, Canis lupus familiaris; details: hepatocytes
[5] = Metabolic stability mouse hepatocyte assessed as half life at 1 uM measured up to 120 mins by LC-MS/MS analysis; type: ADME, cell-based; details: hepatocytes
[6] = Permeability across basolateral to apical side in human Caco-2 cells incubated for 120 mins by LC-MS/MS analysis; type: ADME, cell-based; details: read-out: permeability
[7] = Kinetic solubility of compound in PBS buffer at pH 7.4 incubated for 2 hr by LC-MS analysis; type: physicochemical; details: read-out: Kinetic_solubility
[8] = Kinetic solubility of compound in FeSSIF at pH 5 incubated for 2 hr by LC-MS analysis; type: physicochemical; details: read-out: Kinetic_solubility
[9] = Kinetic solubility of compound in FaSSGF at […] incubated for 2 hr by LC-MS analysis; type: physicochemical; details: read-out: Kinetic_solubility
[10] = Cmax in male C57BL/6 mouse at 2 mg/kg, iv measured up to 24 hrs by LC-MS/MS analysis; type: ADME, organism-based; details: in vivo
[11] = Clearance in male C57BL/6 mouse at 2 mg/kg, iv measured up to 24 hrs by LC-MS/MS analysis; type: ADME, organism-based; details: in vivo
[12] = Cmax in male C57BL/6 mouse at 10 mg/kg, po measured up to 24 hrs by LC-MS/MS analysis; type: ADME, organism-based; details: in vivo
[13] = AUClast in Sprague-Dawley rat at 10 mg/kg, po measured up to 24 hrs by LC-MS/MS analysis; type: ADME, organism-based; details: in vivo
[14] = Half life in Sprague-Dawley rat at 10 mg/kg, po measured up to 24 hrs by LC-MS/MS analysis; type: ADME, organism-based; details: in vivo
[15] = Oral bioavailability in Sprague-Dawley rat at 10 mg/kg measured up to 24 hrs by LC-MS/MS analysis; type: ADME, organism-based; details: in vivo
[16] = Half life in Beagle dog at 2 mg/kg, iv measured up to 24 hrs by LC-MS/MS analysis; type: ADME, organism-based, Canis lupus familiaris; details: in vivo
[17] = Cmax in Beagle dog at 10 mg/kg, po measured up to 24 hrs by LC-MS/MS analysis; type: ADME, organism-based, Canis lupus familiaris; details: in vivo
[18] = AUClast in Beagle dog at 10 mg/kg, po measured up to 24 hrs by LC-MS/MS analysis; type: ADME, organism-based, Canis lupus familiaris; details: in vivo
[19] = Half life in Beagle dog at 10 mg/kg, po measured up to 24 hrs by LC-MS/MS analysis; type: ADME, organism-based, Canis lupus familiaris; details: in vivo
[20] = Half life in cynomolgus monkey at 1 mg/kg, iv measured up to 24 hrs by LC-MS/MS analysis; type: ADME, organism-based, Macaca fascicularis; details: in vivo
[21] = Volume of distribution at steady state in cynomolgus monkey at 1 mg/kg, iv measured up to 24 hrs by LC-MS/MS analysis; type: ADME, organism-based, Macaca fascicularis; details: in vivo, read-out: Vdss
[22] = Half life in cynomolgus monkey at 20 mg/kg, po measured up to 24 hrs by LC-MS/MS analysis; type: ADME, organism-based, Macaca fascicularis; details: in vivo
[23] = biological target: T1, CYP2C8 (Homo sapiens, UniProt P10632); assay: Inhibition of CYP2C8 in human liver microsome using amodiaquine as substrate at 10 uM preincubated for 5 mins followed by NADPH addition and measured after 5 mins by LC-MS/MS analysis relative to control; type: ADME; details: human liver microsomes, probe amodiaquine, time 10 min
T1 sequence (P10632 whole entry): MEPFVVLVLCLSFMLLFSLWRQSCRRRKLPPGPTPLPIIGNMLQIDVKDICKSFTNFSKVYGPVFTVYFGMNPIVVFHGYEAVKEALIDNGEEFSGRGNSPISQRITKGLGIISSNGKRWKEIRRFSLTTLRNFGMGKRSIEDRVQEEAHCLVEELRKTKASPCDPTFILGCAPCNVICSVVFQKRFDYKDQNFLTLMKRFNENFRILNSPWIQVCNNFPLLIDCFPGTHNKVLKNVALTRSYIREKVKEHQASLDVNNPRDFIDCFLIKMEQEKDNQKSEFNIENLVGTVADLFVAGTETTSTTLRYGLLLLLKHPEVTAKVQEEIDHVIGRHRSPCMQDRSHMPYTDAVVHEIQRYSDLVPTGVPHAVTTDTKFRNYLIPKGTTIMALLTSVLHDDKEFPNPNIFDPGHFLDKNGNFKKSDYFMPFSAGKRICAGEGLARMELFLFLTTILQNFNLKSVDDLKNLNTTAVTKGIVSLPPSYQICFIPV

[24] = biological target: CYP2C9 (Homo sapiens, UniProt P11712); assay: Inhibition of CYP2C9 in human liver microsome using diclofenac as substrate at 10 uM preincubated for 5 mins followed by NADPH addition and measured after 10 mins by LC-MS/MS analysis relative to control; type: ADME; details: human liver microsomes, probe diclofenac, time 15 min
Chain of CYP2C9 (P11712 whole entry): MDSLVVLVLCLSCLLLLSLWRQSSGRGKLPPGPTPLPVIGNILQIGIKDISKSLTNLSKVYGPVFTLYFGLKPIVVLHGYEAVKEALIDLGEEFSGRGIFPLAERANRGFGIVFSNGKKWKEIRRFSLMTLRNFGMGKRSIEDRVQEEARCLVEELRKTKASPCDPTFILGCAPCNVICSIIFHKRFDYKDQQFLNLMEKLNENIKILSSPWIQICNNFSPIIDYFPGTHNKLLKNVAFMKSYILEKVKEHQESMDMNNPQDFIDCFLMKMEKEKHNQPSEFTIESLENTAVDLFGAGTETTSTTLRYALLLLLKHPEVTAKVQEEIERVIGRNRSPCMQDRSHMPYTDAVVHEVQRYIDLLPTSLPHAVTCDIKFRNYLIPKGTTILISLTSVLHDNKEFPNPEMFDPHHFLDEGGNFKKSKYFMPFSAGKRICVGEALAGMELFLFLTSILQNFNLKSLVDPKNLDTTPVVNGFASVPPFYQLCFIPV

[25] = biological target: T2, Protein cereblon/Interleukin-1 receptor-associated kinase 4 (Mus musculus) (UniProt Q8C7D2+Q8R4K2); assay: PROTAC activity at CRBN/IRAK4 in mouse PBMC cells assessed as induction of IRAK4 degradation incubated for 24 hrs by HiBiT lytic reagent based analysis relative to control; type: cell-based
T2 sequence (Q8C7D2 whole entry, looked up): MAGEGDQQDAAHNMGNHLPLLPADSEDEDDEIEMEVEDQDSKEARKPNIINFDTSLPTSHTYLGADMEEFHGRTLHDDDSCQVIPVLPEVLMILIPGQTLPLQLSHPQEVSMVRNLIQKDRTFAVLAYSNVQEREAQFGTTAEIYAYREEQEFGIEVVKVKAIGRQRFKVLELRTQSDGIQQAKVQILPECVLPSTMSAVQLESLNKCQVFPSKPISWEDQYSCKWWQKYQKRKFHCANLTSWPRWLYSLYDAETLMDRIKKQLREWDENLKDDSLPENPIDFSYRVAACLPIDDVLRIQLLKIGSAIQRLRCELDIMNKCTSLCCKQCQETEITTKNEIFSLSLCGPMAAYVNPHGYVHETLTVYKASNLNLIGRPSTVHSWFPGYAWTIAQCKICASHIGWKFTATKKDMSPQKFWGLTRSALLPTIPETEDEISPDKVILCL
T2 sequence (Q8R4K2 whole entry, looked up): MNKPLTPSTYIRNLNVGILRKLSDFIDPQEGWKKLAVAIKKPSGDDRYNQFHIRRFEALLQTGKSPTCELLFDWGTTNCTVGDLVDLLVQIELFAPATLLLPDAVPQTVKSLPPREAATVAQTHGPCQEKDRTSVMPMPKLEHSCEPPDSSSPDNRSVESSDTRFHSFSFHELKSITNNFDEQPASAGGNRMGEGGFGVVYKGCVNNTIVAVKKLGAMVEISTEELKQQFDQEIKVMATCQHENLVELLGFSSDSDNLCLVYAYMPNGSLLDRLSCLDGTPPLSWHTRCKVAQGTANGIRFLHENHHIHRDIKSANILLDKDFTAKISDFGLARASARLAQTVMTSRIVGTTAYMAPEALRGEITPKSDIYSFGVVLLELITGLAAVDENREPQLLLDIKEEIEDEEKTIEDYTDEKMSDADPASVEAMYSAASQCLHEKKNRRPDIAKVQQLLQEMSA

[26] = biological target: Protein cereblon/Interleukin-1 receptor-associated kinase 4 (Macaca fascicularis) (UniProt A0A2K5UTB3+A0A2K5V3Y9); assay: PROTAC activity at CRBN/IRAK4 in cynomolgus monkey PBMC assessed as reduction in IRAK4 level measured at 48 hrs by immunoblotting analysis; type: cell-based; set-up: scale not given: the % may be the effect or the level left
Chain of Protein cereblon/Interleukin-1 receptor-associated kinase 4 (Macaca fascicularis) (A0A2K5UTB3 1-488): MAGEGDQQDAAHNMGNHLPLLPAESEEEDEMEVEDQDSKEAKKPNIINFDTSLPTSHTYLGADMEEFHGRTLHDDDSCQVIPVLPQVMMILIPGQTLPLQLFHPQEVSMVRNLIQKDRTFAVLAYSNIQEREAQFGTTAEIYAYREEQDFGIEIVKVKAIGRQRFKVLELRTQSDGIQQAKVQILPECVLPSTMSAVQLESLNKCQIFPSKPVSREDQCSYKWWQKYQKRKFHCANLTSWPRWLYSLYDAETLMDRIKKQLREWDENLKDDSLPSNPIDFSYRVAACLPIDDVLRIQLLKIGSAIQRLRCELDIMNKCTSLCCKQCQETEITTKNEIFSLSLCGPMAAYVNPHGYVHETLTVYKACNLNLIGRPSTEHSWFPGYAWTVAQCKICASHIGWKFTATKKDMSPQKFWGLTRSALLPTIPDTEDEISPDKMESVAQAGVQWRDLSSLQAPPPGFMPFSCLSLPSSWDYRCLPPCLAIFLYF
Chain of Protein cereblon/Interleukin-1 receptor-associated kinase 4 (Macaca fascicularis) (A0A2K5V3Y9 1-460 partner): as the sequence (Q9NWZ3 whole entry) above, with I118V, C128Y, V138L, P148L, T208A, A459D counted along it

[27] = system: Mus musculus; assay: Anti-psoriasis effect in IMQ-induced C57BL/6 mouse assessed as reduction in ear thickness at 10 mg/kg administered topically twice daily for 6 days and measured after 24 hrs; type: functional, organism-based; details: time 7.0 day
[28] = system: Mus musculus; assay: Anti-psoriasis effect in IMQ-induced C57BL/6 mouse assessed as reduction in spleen weight at 30 mg/kg administered topically twice daily for 6 days and measured after 24 hrs; type: functional, organism-based; details: time 7.0 day
[29] = system: Mus musculus; assay: Anti-psoriasis effect in IMQ-induced C57BL/6 mouse assessed as reduction in spleen weight at 100 mg/kg administered topically twice daily for 6 days and measured after 24 hrs; type: functional, organism-based; details: time 7.0 day
[30] = biological target: T2, Protein cereblon/Interleukin-1 receptor-associated kinase 4 (Mus musculus); assay: In-vivo PROTAC activity at C57BL/6 mouse assessed as reduction in IRAK4 level in spleen at 10 mg/kg, po measured after 24 hrs by Western blot analysis; type: functional, organism-based; set-up: scale not given: the % may be the effect or the level left
[31] = system: Mus musculus; assay: Anti-arthritic activity against collagen-induced arthritis DBA/1 mouse model assessed as improvement in delta paw volume at 30 mg/kg, po administered for 14 days […]; type: functional, organism-based; details: time 14.0 day
[32] = system: Mus musculus; assay: Anti-arthritic activity against collagen-induced arthritis DBA/1 mouse model assessed as reduction in pathological score at 30 mg/kg, po administered for 14 days; type: functional, organism-based; details: time 14.0 day

For `Cn1c(=O)n(C2CCC(=O)NC2=O)c2cccc(C#CCO[C@H]3CC[C@H](CN4CCC5(CC4)Cc4cc(NC(=O)c6coc7cccnc67)c(N6CCC(CO)CC6)cc4O5)CC3)c21` (some centres not stated), the DC50 [1] was 4.01 nM, the half-life at 1 µM [2] was 1.98 h and the half-life at 1 µM [3] was 1.52 h. The half-life at 1 µM [4] was over 6.18 h, the half-life at 1 µM [5] was 3.42 h and the Papp B→A at 2 h [6] was 0.2 ×10⁻⁶ cm/s. For the same molecule, the solubility kinetic at 2 h [7] was 0.97 µg/mL (≈ 1.11 µM), the solubility kinetic at 2 h [8] was 7.78 µg/mL (≈ 8.94 µM) and the solubility kinetic at 2 h [9] was 252 µg/mL (≈ 290 µM). For the same molecule, the Cmax [10] was 1870 ng/mL, the clearance [11] was 3.13 mL/min/kg and the Cmax [12] was 1070 ng/mL. For the same molecule, the AUClast [13] was 7093 ng·h/mL, the half-life [14] was 3.43 h and the F [15] was 18%. For the same molecule, the t1/2 [16] was 8.1 h, the Cmax [17] was 360 ng/mL and the AUC(0-t) at 24 h [18] was 6990 ng·h/mL. It also gave a half-life [19] of 10.6 h, a half-life [20] of 8.67 h and a Vd [21] of 3.85 L/kg. For the same molecule, the half-life [22] was 9.07 h, the inhibition at 5 min, 10 µM [23] was 12.4% and the inhibition at 10 min, 10 µM [24] was 13.9%. For the same molecule, the Emax [25] was 82%, the Activity [26] was 83% and the Activity [27] was “Active”. The Activity [28] was “Active”, the Activity [29] was “Active” and the Activity [30] was 74%. For the same molecule, the Activity [31] was “Active” and the Activity [32] was “Active”.
